Drawing on patent publication US20240043427A1 (Gilead Sciences, Inc., priority 2020, published 2024), this text covers IC50 and EC50 for 4 compounds.

Each structure is given as a SMILES string. Several values for one entry are separate records, joined by “and”; a condition that tells them apart may be missing. Equal values may be shown once. Read-outs that look alike come from different tables or passages of the source.

Assay [1] concerns the target T1, CD73 (Homo sapiens (Human), UniProt P21589). Nature of the assay: CD73 Biochemical IC50 Assay. The note with it: CD73 0.3 nM, AMP 15 uM, 25 mM Tris pH 7.4, 5 mM MgCl2. The method, then: CD73 Biochemical IC50 Assay
Compound serial dilutions were pre-spotted into Thermo Nunc assay plate. 50 μL CD73 enzyme buffer (CD73 purchased from R&D system=0.6 nM, 25 mM Tris, pH 7.4, 5 mM MgCl2) was added into the assay plate and incubated for 15 mins. […] The samples were run using Rapid fire.

For assay [2], the target named is T1, CD73. The assay is classed as biochemical. To be noted: 1 mM NaH2PO4 in enzyme buffer, CD73 0.3 nM, AMP 15 uM.
Assay [3] deals with T1, CD73. The experiment in a line: MDA-MB-231 Cell Based CD73 Activity Assay. To be noted: MDA-MB-231-GFP cells, RPMI medium with 10% human plasma, 200 uM AMP.
Assay [4] has as its target T1, CD73. The experiment in a line: MDA-MB-231 Cell Based CD73 Activity Assay (DMEM). To be noted: MDA-MB-231-GFP cells, DMEM medium with 10% human plasma, 200 uM AMP.

T1 sequence (P21589 27-574): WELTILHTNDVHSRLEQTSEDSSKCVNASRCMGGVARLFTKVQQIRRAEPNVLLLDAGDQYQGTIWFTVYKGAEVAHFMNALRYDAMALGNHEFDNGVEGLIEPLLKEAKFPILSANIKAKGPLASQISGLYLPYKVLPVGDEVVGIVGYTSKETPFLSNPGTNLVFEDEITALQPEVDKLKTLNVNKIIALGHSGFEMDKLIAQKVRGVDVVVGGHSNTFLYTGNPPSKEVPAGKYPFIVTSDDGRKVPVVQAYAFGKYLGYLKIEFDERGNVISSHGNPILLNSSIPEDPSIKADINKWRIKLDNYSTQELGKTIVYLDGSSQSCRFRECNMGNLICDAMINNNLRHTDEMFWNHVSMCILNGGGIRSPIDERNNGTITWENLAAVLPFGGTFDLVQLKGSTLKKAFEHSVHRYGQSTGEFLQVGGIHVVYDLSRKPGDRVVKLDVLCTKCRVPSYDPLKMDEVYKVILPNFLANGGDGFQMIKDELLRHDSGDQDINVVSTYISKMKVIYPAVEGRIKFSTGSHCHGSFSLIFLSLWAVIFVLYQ

Consider `O=c1[nH]cc(-c2cc([C@H]3C[C@@H]3c3ccccc3)c3nccn3n2)c(=O)[nH]1` (racemic) [Example 7, 5-(8-((1S,2S)-2-phenylcyclopropyl)imidazo[1,2-b]pyridazin-6-yl)pyrimidine-2,4-(1H,3H)-dione and 5-(8-((1R,2R)-2-phenylcyclopropyl)imidazo[1,2-b]pyridazin-6-yl)pyrimidine-2,4-(1H,3H)-dione], for which the IC50 against CD73 [1] was 13.6 nM and 13 nM; at CD73 [2], 0.94 nM. Also, the EC50 on CD73 [3] was 2.08 nM and 1.88 nM; at CD73 [4], 4.15 nM.
With `O=c1[nH]cc(-c2cc(N3CCCC3)c3nccn3n2)c(=O)[nH]1` [Example 9, 5-(8-pyrrolidin-1-ylimidazo[1,2-b]pyridazin-6-yl)-1H-pyrimidine-2,4-dione], the values for the IC50 at CD73 [1] and against CD73 [2] were 106 nM and 19.4 nM, respectively. In addition, the values for the EC50 on CD73 [3] and on CD73 [4] were 29.1 nM and 58.8 nM, respectively.
For `O=c1[nH]cc(-c2cc(C3CC3)c3nccn3n2)c(=O)[nH]1` [Example 22, 5-(8-cyclopropylimidazo[1,2-b]pyridazin-6-yl)pyrimidine-2,4(1H,3H)-dione], the IC50 on CD73 [1] was 55.8 nM and 64.9 nM; at CD73 [2], 35.5 nM. In addition, the EC50 at CD73 [3] is 46.3 nM and 45.1 nM; on CD73 [4] it was 104 nM.
Turning to `O=c1[nH]cc(-c2cc(N3CCC(c4ccc(F)cc4)C3)c3nccn3n2)c(=O)[nH]1` (stereo in doubt) [Example 67, 5-[8-[(3R)-3-(4-fluorophenyl)pyrrolidin-1-yl]imidazo[1,2-b]pyridazin-6-yl]-1H-pyrimidine-2,4-dione], the IC50 turned out to be 30.1 nM on CD73 [1] and 4.83 nM against CD73 [2]. The EC50 was found to be 14.3 nM on CD73 [3] and 30.3 nM on CD73 [4].

For orientation: IC50 means the concentration at which inhibition is half-maximal. Higher therefore signals weaker potency. One may read the EC50 as the concentration giving half of the maximal effect. A lower EC50 goes with greater potency.
